According to patent US10233146B2, “Acetylenic cyanoenones as therapeutics for inflammation and carcinogenesis” (THE RESEARCH FOUNDATION FOR THE STATE UNIVERSITY OF NEW YORK, priority 2015, dated 2019):
Entries after “also recorded” stand apart in the source; their conditions may differ.

Legend:
NQO1 [1] = assay: Induction of NQO1 in Hepa1c1c7 murine hepatoma cells; format: cell-based; conditions: for EC (2-fold NQO1 activity): Mus musculus, Hepa-1c1c7, Hepa1c1c7 cells, 48 h treatment, read-out: NQO1 CD (concentration required to double the specific enzyme activity of NQO1)
Description: In this assay, the concentration required to double (CD value) the specific enzyme activity of NQO1 is used to quantify inducer potency. […] Dinkova-KOstova, A. T. et al. 2012). […] These compounds may be more robust inducers than monocyclic compounds. [table]

NQO1 [2] = conditions: Hepa1c1c murine hepatoma cells; cited from earlier work
[3] = system: NQO1 and glutathione S-transferases; conditions: mice, 9.2 mg per kg of food in the diet; cited from earlier work
Keap1/Nrf2/ARE pathway = conditions: topical daily 200 nmol, five days per week for four weeks, cited from earlier work
[4] = UV study of Michael adduct formation with DTT; format: physicochemical; conditions: 0.1 mM compound, phosphate buffer saline-1% ethanol (pH 7.4), rt; for A (absorbance) With DTT (1 equiv) / λmax With DTT (1 equiv): 0.1 mM DTT; for A (absorbance) With DTT (10 equiv) / λmax With DTT (10 equiv): 1 mM DTT
Method: Calculation of Approximate Equilibrium Constant (K)
The concentrations of 3, with initial concentration of 0.1 mM, and DTT, with initial concentration of 0.1 mM, in the phosphate buffer are calculated to be 0.0855 mM as follows: (1) The absorbance (A) is 0.956 at 0.1 mM concentration of 3 in deionized water. (2) The A of 3 is 0.817 in the phosphate buffer. (3) The concentrations of 3 and DTT in the buffer are calculated to be 0.0855 mM based on (1) and (2). From these concentrations, the approximate K is calculated as follows: K=[Adduct]/[3]×[DTT]=0.0145×10^−3/[…]=2.0×10^3 (Liters/mol).
Unfortunately, since the λmax of 4-8 was not observed due to the overlapping, we can't calculate the concentrations of the adducts of 4-8 by the same method as for 3. However, since we can speculate that the ε of the adducts of 4-8 is almost similar to that of the adduct of 2, we can calculate the concentrations of the adducts of 4-8 based on the A (0.227 at 0.0145 mM) of the adduct of […] and the A of the adducts of 4-8. For example, the concentration of the adduct of 5 is 0.0145×0.369 (A of the adduct of 5)/0.227=0.0235 (mM). Therefore, the concentrations of 5 and DTT are 0.0765 (mM/each). Thus, K of 5=0.0235×10^−3/0.0765×0.0765×10^−6=4.0×10^3 (Liters/mol). The K of 4 and 6-8 are also calculated using the A (0.227 at 0.0145 mM) of the adduct of 3 and the A of the adducts of 4 and 6-8, respectively.
Chemical reactivity of monocyclic, bicyclic, and tricyclic compounds 4-15 as Michael acceptors was evaluated using UV spectroscopy.
Michael reaction between ethynylcyanodienones with DTT give adducts IV (Scheme 11). Since adducts IV have different UV absorption spectra (λmax 330-380 nm) from those of the corresponding ethynylcyanodienones (λmax 230-320 nm), UV spectroscopy can clarify whether or not the Michael adducts are produced.^6
(§1) 1. UV Studies on Monocyclic and Bicyclic Compounds 4-9 with DTT Compounds 5-8 with DTT gave similar UV spectra to those of 3 (Taylor, S. K. et al. 1988). Compounds 5-8 have local maximum absorptions at 332-338 nm upon the addition of DTT (1 and 10 equiv) under dilute (0.1 mM of the compounds) and neutral aqueous conditions (pH 7.4 phosphate buffered saline-1% ethanol containing 1 mM KH2PO4, 5.6 mM Na2HPO4, and 154 mM NaCl) (Table 1 and FIG. 2). Also, these compounds react with a chloride anion (a much weaker nucleophile than a sulfhydryl group of DTT), which is contained in the buffer solution, to give Michael adducts whose local maximum absorptions are observed at 320-326 nm.
We have calculated approximate equilibrium constants (K) of these Michael reactions in the solutions of 5-8 with DTT (each initial concentration, 0.1 mM. See the calculation of the equilibrium constants in the Supporting Information). The values of K are approximately 1.0-4.2×10^3 (L/mol), implying that these additions are very strongly favored.
Tricyclic compounds 10-15 react with DTT to give the adducts whose local maximum absorptions are observed at 374-383 nm range (Table 1 and FIG. 2). […] Among phenanthrene derivatives, substitutents at C5 decrease the reactivity.

[5] = UV study of Michael adduct formation with chloride anion of the buffer (without DTT); format: physicochemical; conditions: 0.1 mM compound, phosphate buffer saline-1% ethanol (pH 7.4)
Method: as §1, with “nm. […]” for “nm.”

## C#C[C@]12C=C(C#N)C(=O)C=C1[C@@]1(C)C=C(C#N)C(=O)C(C)(C)[C@@H]1CC2 (racemic) [TBE-31 (1), (±)-(4bS,8aR,10aS)-10a-ethynyl-4b,8,8-trimethyl-3,7-dioxo-3,4b,7,8,8a,9,10, 10a-octahydrophenanthrene-2,6-dicarbonitrile]
NQO1 [1]
  EC (2-fold NQO1 activity): 0.0009 µM
iNOS
  IC50: 1 nM
NQO1 [2]
  upregulation of NQO1: upregulates NAD(P)H: quinone oxidoreductase 1 (NQO1)
[3]
  induction of NQO1 and glutathione S-transferases in the stomach, skin, and liver: profoundly and dose-dependently induces
Keap1/Nrf2/ARE pathway; azathioprine-treated mice
  6-thioguanine incorporation into DNA of skin, blood, and liver: decreases
Keap1/Nrf2/ARE pathway
  systemic induction of the Keap1/Nrf2/ARE pathway: robust systemic induction

## C#CC12C=C(C#N)C(=O)C=C1c1ccccc1C2 (stereo not shown) [Compound 14, 9a-Ethynyl-3-oxo-9,9a-dihydro-3H-fluorene-2-carbonitrile]
[4]
  A (absorbance) With DTT (1 equiv): 0.808
  λmax With DTT (1 equiv): 377 nm
  A (absorbance) With DTT (10 equiv): 0.820
  λmax With DTT (10 equiv): 382 nm
[5]
  A (absorbance) Without DTT (With Cl^—): 0.867
  λmax Without DTT (With Cl^—): 364 nm
NQO1 [1]; FIG. 3, concentrations higher than the CD values
  magnitude of NQO1 induction at higher concentrations: induce NQO1 more effectively than monocyclic compounds 3-6; also recorded: induces NQO1 to a greater magnitude than 3 and 5
NQO1 [1]
  EC (2-fold NQO1 activity): 0.041 µM
other
  melting point: 202 to 203 °C
iNOS
  IC50: 480 nM

## C#CC12C=C(C#N)C(=O)C=C1c1c(Cl)cccc1C2 (stereo not shown) [Compound 15, 5-Chloro-9a-ethynyl-3-oxo-9,9a-dihydro-3H-fluorene-2-carbonitrile]
[4]
  A (absorbance) With DTT (1 equiv): 0.819
  λmax With DTT (1 equiv): 378 nm
  A (absorbance) With DTT (10 equiv): 0.803
  λmax With DTT (10 equiv): 383 nm
[5]
  A (absorbance) Without DTT (With Cl^—): 1.025
  λmax Without DTT (With Cl^—): 369 nm
NQO1 [1]
  EC (2-fold NQO1 activity): 0.13 µM
other
  melting point: 191 to 193 °C
iNOS
  IC50: 800 nM
